Each structure is given as a SMILES string.

The assay deals with T1, Acylase (Pseudomonas aeruginosa, UniProt A0A0G5TC92).
T1 sequence (A0A0G5TC92 whole entry): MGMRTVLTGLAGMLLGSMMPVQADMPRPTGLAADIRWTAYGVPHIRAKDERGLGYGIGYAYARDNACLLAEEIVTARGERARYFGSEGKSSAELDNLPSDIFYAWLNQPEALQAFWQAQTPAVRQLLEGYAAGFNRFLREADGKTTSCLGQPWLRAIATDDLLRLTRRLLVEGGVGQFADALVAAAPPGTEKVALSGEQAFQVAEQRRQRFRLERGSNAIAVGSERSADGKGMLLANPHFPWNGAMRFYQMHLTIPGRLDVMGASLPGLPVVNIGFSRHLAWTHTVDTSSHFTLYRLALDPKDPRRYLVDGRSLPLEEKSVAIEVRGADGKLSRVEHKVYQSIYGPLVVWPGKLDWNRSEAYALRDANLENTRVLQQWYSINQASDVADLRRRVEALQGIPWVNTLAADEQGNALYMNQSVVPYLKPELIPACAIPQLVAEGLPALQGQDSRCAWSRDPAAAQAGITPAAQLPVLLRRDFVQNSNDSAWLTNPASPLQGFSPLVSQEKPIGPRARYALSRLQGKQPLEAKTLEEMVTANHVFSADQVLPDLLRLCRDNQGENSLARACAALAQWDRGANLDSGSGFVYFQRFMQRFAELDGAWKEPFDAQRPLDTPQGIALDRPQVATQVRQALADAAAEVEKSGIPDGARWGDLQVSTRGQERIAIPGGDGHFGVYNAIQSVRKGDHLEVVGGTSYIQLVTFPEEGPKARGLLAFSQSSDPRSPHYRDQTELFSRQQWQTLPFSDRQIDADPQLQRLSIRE
As to the kind of experiment: PVdQ Inhibition Assay. Conditions: pH 8. The protocol: Briefly, stock solutions of the colorimetric PvdQ substrate (4-nitrophenyl dodecanoate) were prepared in methanol and stock solutions of each n-alkylboronic acid inhibitor in DMSO. […] Each reaction was initiated by addition of purified PvdQ (10 nM) and product formation was monitored by measuring the increase in absorbance at 402 nm continuously.
Broadly, the Ki is the equilibrium dissociation constant of an inhibitor or competing ligand from its target. Read a low Ki as a stronger hold on the target. For `CCB(O)O` [1-Ethylboronic acid (C2-B(OH)2)], the affinity, expressed as Ki, was 2000 µM.
As to `CCCCCCB(O)O` [1-Hexylboronic acid (C6-B(OH)2)], the affinity corresponds to a Ki of 2.1 µM.
In the case of `CCCB(O)O` [1-Propylboronic acid (C3-B(OH)2)], the Ki amounted to 4700 µM.
As for `CCCCB(O)O` [Borinic acid derivative], the figure is 550 µM.

The values above are taken from BindingDB's records for doi:10.1021/bi501086s (The University of Texas, 2014).
